Tests used:
Format in all cases: in vivo, human
[1] = test system: BSAP and PICP serum levels, NTX urine levels; test: Example 3 clinical trial of rhPTH(1-34) vs alendronate: bone markers; conditions: 40 μg/day PTH
Procedure: • Number of Subjects: • rhPTH(1-34): 73 enrolled, 51 finished. • Alendronate (Fosamax®): 73 enrolled, 57 finished. • Diagnosis and Inclusion Criteria: Women aged 65±8 years, postmenopausal for 19±19 years, selected for a baseline spine bone mineral density of 0.8±0.1 and a T value of −2.2. Dosage and Administration: • Test Product (blinded) • rhPTH(1-34): 40 μg/day, given subcutaneously • Reference (Control) Therapy (blinded) • Alendronate (Fosamax®): 10 mg per patient per day • Duration of Treatment: • rhPTH(1-34): 12-18 months, with follow up from time of withdrawal of drug to 18 months of study. • Alendronate: 12-18 months, with follow up from time of withdrawal of drug to 18 months of study. • Criteria for Evaluation: Spine x-ray, serum biological markers (calcium, bone-specific alkaline phosphatase, procollagen I carboxy-terminal propeptide); urine makers (calcium, N-telopeptide, fir deoxypyridinoline); 1,25-dihydroxyvitamin D; bone mineral density spine, hip, wrist, and total body.
(§1) Measures of BSAP, PICP, and NTX levels were determined for each patient through the course of therapy generally according to methods described above in Example 1.

[2] = test system: postmenopausal osteoporotic women; test: GHAC efficacy trial (intent to treat BMD, fractures); conditions: 20 μg/day, 21 months
Procedure: (§2) • Number of Subjects: • rhPTH(1-34): 1093 enrolled, 848 finished. • Placebo: 544 enrolled, 447 finished. • Diagnosis and Inclusion Criteria: Women ages 30 to 85 years, postmenopausal for a minimum of 5 years, with a minimum of one moderate or two mild atraumatic vertebral fractures. • Dosage and Administration: • Test Product (blinded) • rhPTH(1-34): 20 μg/day, given subcutaneously • rhPTH(1-34): 40 μg/day, given subcutaneously • Reference Therapy (blinded) • Placebo study material for injection • Duration of Treatment: • rhPTH(1-34): 17-23 months (excluding 6-month run-in phase) • Placebo: 17-23 months (excluding 6-month run-in phase) • Criteria for Evaluation: Spine x-ray; serum biological markers (calcium, bone-specific alkaline phosphatase, procollagen I carboxy-terminal propeptide); urine markers (calcium, N-telopeptide, free deoxypyridinoline); 1,25-dihydroxyvitamin D; bone mineral density: spine, hip, wrist, and total body: height; population pharmacokinetics; bone biopsy (selected study sites).
Population pharmacodynamic analyses were undertaken to evaluate the time course of the relationships between efficacy measures and LY333334 dose or LY333334 concentrations. […] As a part of this assessment, a population placebo-response model describing the change in BMD in patients randomly assigned to placebo (supplemented with calcium and vitamin D) was first developed. […]

[3] = test system: BSAP and PICP serum levels, NTX urine levels; test: Example 2 clinical trial of rhPTH(1-34) plus hormone replacement therapy vs HRT: bone markers; conditions: 40 μg/day PTH plus HRT
Procedure: • Number of Subjects: • rhPTH(1-34) plus hormone replacement therapy (HRT) (estrogen±progesterone): 122 enrolled, 91 finished. • Control, hormone replacement therapy (estrogen±progesterone) without PTH: 125 enrolled, 105 finished. • Diagnosis and Inclusion Criteria: Women aged 62±8 years, postmenopausal for 15±8 years, selected for a baseline spine bone mineral density of 0.9±0.15 and a T value of −1.8. • Dosage and Administration: • Test Product (blinded) • rhPTH(1-34): 40 μg/day, given subcutaneously plus hormone replacement therapy (estrogen±progesterone). Subjects continued their prestudy hormone replacement therapy, maintained an HRT regimen consistent with local medical practices, took continuous/combined estrogen and progestin therapy using oral Premarin (0.625 mg/day) and oral Provera (2.5 mg/day) (intact uterus), or took estrogen therapy using oral Premarin (0.625 mg/day) (without intact uterus). • Reference (Control) Therapy (Blinded) • Hormone replacement therapy (estrogen±progesterone). Subjects continued their prestudy hormone replacement therapy, maintained an HRT regimen consistent with local medical practices, took continuous/combined estrogen and progestin therapy using oral Premarin (0.625 mg/day) and oral Provera (2.5 mg/day) (intact uterus), or took estrogen therapy using oral Premarin (0.625 mg/day) (without intact uterus). • Duration of Treatment: • rhPTH(1-34): up to 18 months • Control: up to 18 months • Criteria for Evaluation: Spine x-ray, serum biological makers (calcium, bone-specific alkaline phosphatase procollagen I carboxy-terminal propeptide); urine markers (calcium, N-telopeptide, fee deoxypyridinoline); 1,25-dihydroxyvitamin D; bone mineral density: spine, hip, wrist, and total body.
as §1

[4] = test system: BSAP and PICP serum levels, NTX urine levels; test: Example 1 clinical trial of rhPTH(1-34) in postmenopausal women: markers of bone formation and resorption
Procedure: as §2
Measures of BSAP, PICP, and NTX levels were determined for each patient through the course of therapy, for example, at 0, 1, 3, 6, 12, 21 and 24 months after the initiation of administration of parathyroid hormone. Parathyroid hormone treatment was discontinued after 17-23 months. The percent change (relative to the initial “0” month levels) for each marker was determined for each patient and is reported in the Figures. The overall changes observed in the 20 μg/day PTH-treated patient population, the 40 μg/day PTH-treated treated patient population, and the placebo patient population were determined by methods known to those of skill in the arts.

[5] = about 5-6 weeks following termination (18 months)
[6] = about 5-6 weeks following termination, about 21-24 months after initiation

Question: Which “BSAP level after termination of PTH treatment” value (from here on “BSAP level after termination”) ([1]; (18 months)) does the source give for CC[C@H](C)[C@H](NC(=O)[C@H](CCC(=O)O)NC(=O)[C@H](CO)NC(=O)[C@@H](NC(=O)[C@@H](N)CO)C(C)C)C(=O)N[C@@H](CCC(N)=O)C(=O)N[C@@H](CC(C)C)C(=O)N[C@@H](CCSC)C(=O)N[C@@H](Cc1cnc[nH]1)C(=O)N[C@@H](CC(N)=O)C(=O)N[C@@H](CC(C)C)C(=O)NCC(=O)N[C@@H](CCCCN)C(=O)N[C@@H](Cc1cnc[nH]1)C(=O)N[C@@H](CC(C)C)C(=O)N[C@@H](CC(N)=O)C(=O)N[C@@H](CO)C(=O)N[C@@H](CCSC)C(=O)N[C@@H](CCC(=O)O)C(=O)N[C@@H](CCCN=C(N)N)C(=O)N[C@H](C(=O)N[C@@H](CCC(=O)O)C(=O)N[C@@H](Cc1c[nH]c2ccccc12)C(=O)N[C@@H](CC(C)C)C(=O)N[C@@H](CCCN=C(N)N)C(=O)N[C@@H](CCCCN)C(=O)N[C@@H](CCCCN)C(=O)N[C@@H](CC(C)C)C(=O)N[C@@H](CCC(N)=O)C(=O)N[C@@H](CC(=O)O)C(=O)N[C@H](C(=O)N[C@@H](Cc1cnc[nH]1)C(=O)N[C@@H](CC(N)=O)C(=O)N[C@@H](Cc1ccccc1)C(=O)O)C(C)C)C(C)C [LY333334] here?
Answer: Its value is “BSAP remained at an elevated level”.

Question: What about the “percent change in PICP serum levels during treatment” value ([1]; FIG. 8) of the same compound?
Answer: The value was “reached a peak within about one or two months”.

Question: What about the “percent change in NTX urine levels during treatment” value ([1]; FIG. 9) of the same compound?
Answer: Its value is “increased steadily until about 12 months after treatment initiation”.

Question: And the “NTX levels after termination of PTH treatment” value [1, 5]?
Answer: Its value is “had declined but remained elevated compared to pretreatment levels”.

Question: What about the “PICP levels after termination of PTH treatment” value [1, 5] of the same compound?
Answer: Its value is “PICP levels were the same pre-treatment levels”.

Question: What about the “actual increase in femoral neck BMD from intent to treat analyses” value [2] of the same compound?
Answer: The value was 2.8%.

Question: What about the “actual increase in spine BMD from intent to treat analyses” value [2] of the same compound?
Answer: Its value is 9.7%.

Question: What about the “percent change in PICP serum levels during treatment” value ([3]; FIG. 5) of the same compound?
Answer: The value was “reached a peak within about one or two months”.

Question: And the “percent change in NTX urine levels during treatment” value ([3]; FIG. 6)?
Answer: The value was “increased steadily until about 6 months after treatment initiation and remained at about the same high level at 12 months”.

Question: And the “BSAP level after termination” value [3, 5]?
Answer: The value was “maintained an elevated level”.

Question: And the “PICP levels after termination of PTH treatment” value [3, 5]?
Answer: Its value is “PICP levels were the same as HRT controls”.

Question: What about the “percent change in NTX levels after termination of PTH treatment” value [3, 5] of the same compound?
Answer: Its value is “had declined and approached levels similar to those observed in the control group”.

Question: What about the “percent change in PICP serum levels during treatment” value ([4]; 20 μg/day and 40 μg/day PTH, FIG. 2) of the same compound?
Answer: The value was “reached a peak within about one or two months”.

Question: What about the “percent change in NTX urine levels during treatment” value ([4]; 20 μg/day and 40 μg/day PTH, FIG. 3) of the same compound?
Answer: Its value is “increased steadily until about 12 months after treatment initiation”.

Question: What about the “BSAP level after termination” value [4, 6] of the same compound?
Answer: The value was “returned to a level at or slightly higher than placebo control levels”.

Question: What about the “PICP level after termination of PTH treatment” value [4, 6] of the same compound?
Answer: Its value is “returned to a level about the same as placebo controls”.

Question: What about the “percent change in NTX levels after termination of PTH treatment” value ([4]; about 21-24 months after initiation) of the same compound?
Answer: Its value is “declined and returned to levels similar to those observed in the placebo treated group”.

From patent US20050255537A1, “Method for monitoring treatment with a parathyroid hormone” (priority 1999, published 2005)
